From patent US9133168B2, “Pyrimidine derivatives, preparation thereof, and pharmaceutical use thereof as akt(pkb) phosphorylation inhibitors” (SANOFI, priority 2010, dated 2015)

What follows are compounds tested on AKT protein phosphorylated on serine 473 (P-AKT-S473) in PC3 human prostate carcinoma cells (assay: pAKT expression in PC3 human prostate carcinoma cells, MSD Multi-spot Biomarker detection (Test A)). Settings: Homo sapiens, PC-3.
Format: cell-based
Description: The inhibitory activity of the molecules on AKT phosphorylation is measured using the MSD Multi-spot Biomarker detection technique from Meso Scale Discovery also described below. […] The primary antibody specific for […]) is coated on to an electrode in each well of the 96-well plates of the MSD kit: after the addition of a protein lysate to each well, the signal is visualized by adding a secondary detection antibody labeled with an electrochemiluminescent compound. The procedure followed is the one described in the kit. […] On day 2, the cells are incubated in the presence or absence of the test products for 1 to 2 h at 37° C. in the presence of 5% CO2. The molecules, diluted in dimethyl sulfoxide (DMSO Sigma #D2650), are added from a 20-times concentrated stock solution, the final percentage of DMSO being 0.1%. The molecules are tested either at a single concentration of less than or equal to 10 μM, or at increasing concentrations in a range that can extend from less than 1 nM to 10 μM. After this incubation, the cells are lysed for the preparation of the proteins. […] At this stage, the plates containing the lysates can be frozen at -20° C. or at -80° C. The wells of the 96 well plates of the MSD kit are saturated for 1 h at ambient temperature with the blocking solution of the MSD kit. Four washes are carried out with 150 μl of Tris Wash Buffer of the MSD kit. The lysates previously prepared are transferred into the 96-well multi-spot plates of the MSD kit and incubated for 1 h at ambient temperature, with shaking. Four washes are carried out with 150 μl of Tris Wash Buffer of the MSD kit. 25 μl of the MSD sulfo-tag detection antibody solution are added to the wells and incubated for 1 h at ambient temperature, with shaking. Four washes are carried out with 150 μl of Tris Wash Buffer of the MSD kit. 150 μl of Read Buffer of the MSD kit are added to the wells and the plates are read immediately on the S12400 instrument from Meso Scale Discovery. The instrument measures a signal for each well. Wells without cells and containing the lysis buffer serve to determine the background noise that will be subtracted from all the measurements (min). The wells containing cells in the absence of product and in the presence of 0.1% DMSO are considered to be the 100% signal (max). The percentage inhibition is calculated for each concentration of product tested, according to the following formula: (1-((test-min)/(max-min)))×100. […] Two independent experiments make it possible to calculate the mean of the IC50 values.

| SMILES | IC50 |
| --- | --- |
| Cn1c(CC(=O)Nc2ccc(F)c(Cl)c2)nc(N2CCOC(CF)C2)cc1=O (single isomer, unassigned; (+)) [Example 5b, (+)-N-(3-chloro-4-fluorophenyl)-2-[4-(2-fluoromethylmorpholin-4-yl)-1-methyl-6-oxo-1,6-dihydropyrimidin-2-yl]acetamide] | 127 nM |

Same assay, conditions: Homo sapiens, PC-3, PC3 cells, 1 to 2 h incubation, P-AKT-S473, absolute IC50, mean of two independent experiments

| SMILES | IC50 |
| --- | --- |
| CCC1CN(c2cc(=O)[nH]c(CC(=O)Nc3ccc(F)cc3)n2)CCO1 (racemic) [Example 14b, (±)-2-[4-(2-ethylmorpholin-4-yl)-6-oxo-1,6-dihydropyrimidin-2-yl]-N-(4-fluorophenyl)acetamide] | 280 nM |
| O=C(Cc1nc(N2CCOC(CO)C2)cc(=O)[nH]1)N1CCc2c(F)cccc21 (racemic) [Example 27b, (±)-2-[2-(4-fluoro-2,3-dihydroindol-1-yl)-2-oxoethyl]-6-(2-hydroxymethylmorpholin-4-yl)-3H-pyrimidin-4-one] | 1330 nM |
| CCC1CN(c2cc(=O)[nH]c(CC(=O)Nc3ccc(F)cc3)n2)CCO1 (single isomer, unassigned; (+)) [Example 15b, (+)-2-[4-(2-Ethylmorpholin-4-yl)-6-oxo-1,6-dihydropyrimidin-2-yl]-N-(4-fluorophenyl)acetamide] | 105 nM |
| CC1Cc2c(ccc(F)c2F)N1C(=O)Cc1nc(N2CCOCC2)cc(=O)n1C (single isomer, unassigned; (+)) [Example 19c, (+)-2-{2-[4,5-difluoro-2-methyl-2,3-dihydro-1H-indol-1-yl]-2-oxoethyl}-3-methyl-6-(morpholin-4-yl)pyrimidin-4(3H)-one] | 19 nM |
| CC1CN(c2cc(=O)[nH]c(CC(=O)N3c4ccccc4C[C@@H]3C)n2)CCO1 (single isomer, unassigned; (+)) [Example 29b] | 24 nM |
| C[C@H]1Cc2ccccc2N1C(=O)Cc1nc(N2CCOC(CO)C2)cc(=O)[nH]1 (single isomer, unassigned; (+)) [Example 31b] | 156 nM |

Same assay, conditions: PC3 cells, 1 to 2 h incubation, P-AKT-S473, absolute IC50, mean of two independent experiments

| SMILES | IC50 |
| --- | --- |
| CC1CN(c2cc(=O)[nH]c(CC(=O)Nc3ccc(F)cc3)n2)CCO1 (single isomer, unassigned; (+)) [Example 2b, (+)-N-(4-fluorophenyl)-2-[4-(2-methylmorpholin-4-yl)-6-oxo-1,6-dihydropyrimidin-2-yl]acetamide] | 6 nM |
| CC1Cc2c(Cl)cccc2N1C(=O)Cc1nc(N2CCOCC2)cc(=O)[nH]1 (single isomer, unassigned; (+)) [Example 2c, (+)-2-{2-[4-chloro-2-methyl-2,3-dihydro-1H-indol-1-yl]-2-oxoethyl}-6-(morpholin-4-yl)pyrimidin-4(3H)-one] | 5 nM |
| O=C(Cc1nc(N2CCOC(CF)C2)cc(=O)[nH]1)Nc1ccc(F)cc1 (single isomer, unassigned; (+)) [Example 4b, (+)-N-(4-fluorophenyl)-2-[4-(2-fluoromethylmorpholin-4-yl)-6-oxo-1,6-dihydropyrimidin-2-yl]acetamide] | 118 nM |
| O=C(Cc1nc(N2CCOC(CF)C2)cc(=O)[nH]1)N1CCc2c(F)cccc21 (single isomer, unassigned; (+)) [Example 7b, (+)-2-[2-(4-fluoro-2,3-dihydroindol-1-yl)-2-oxoethyl]-6-(2-fluoromethylmorpholin-4-yl)-3H-pyrimidin-4-one] | 21 nM |
| CC1Cc2c(O)cccc2N1C(=O)Cc1nc(N2CCOCC2)cc(=O)[nH]1 (single isomer, unassigned; (+)) [Example 9c, (+)-2-{2-[4-hydroxy-2-methyl-2,3-dihydro-1H-indol-1-yl]-2-oxoethyl}-6-(morpholin-4-yl)pyrimidin-4(3H)-one] | 115 nM |
| CC1CN(c2cc(=O)[nH]c(CC(=O)N3CCc4c(F)cccc43)n2)CCO1 (single isomer, unassigned; (+)) [Example 10b, (+)-2-[2-(4-fluoro-2,3-dihydroindol-1-yl)-2-oxoethyl]-6-(2-methylmorpholin-4-yl)-3H-pyrimidin-4-one] | 8 nM |
| CC1Cc2cc(F)ccc2N1C(=O)Cc1nc(N2CCOCC2)cc(=O)[nH]1 (single isomer, unassigned; (+)) [Example 13c, (+)-2-{2-[5-fluoro-2-methyl-2,3-dihydro-1H-indol-1-yl]-2-oxoethyl}-6-(morpholin-4-yl)pyrimidin-4(3H)-one] | 5 nM |
| CC1Cc2cc(F)ccc2N1C(=O)Cc1nc(N2CCOCC2)cc(=O)n1C (single isomer, unassigned; (+)) [Example 15c, (+)-2-{2-[5-fluoro-2-methyl-2,3-dihydro-1H-indol-1-yl]-2-oxoethyl}-3-methyl-6-(morpholin-4-yl)pyrimidin-4(3H)-one] | 28 nM |
| CC1Cc2c(Br)cccc2N1C(=O)Cc1nc(N2CCOCC2)c(F)c(=O)[nH]1 (single isomer, unassigned; (+)) [Example 16a, (+)-2-{2-[4-bromo-2-methyl-2,3-dihydro-1H-indol-1-yl]-2-oxoethyl}-5-fluoro-6-(morpholin-4-yl)pyrimidin-4(3H)-one] | 483 nM |
| CC1Cc2c(ccc(F)c2F)N1C(=O)Cc1nc(N2CCOCC2)cc(=O)[nH]1 (single isomer, unassigned; (+)) [Example 17c, (+)-2-{2-[4,5-difluoro-2-methyl-2,3-dihydro-1H-indol-1-yl]-2-oxoethyl}-6-(morpholin-4-yl)pyrimidin-4(3H)-one] | 4 nM |
| CC1Cc2ccccc2N1C(=O)Cc1nc(N2CCOCC2)cc(=O)[nH]1 (single isomer, unassigned; (+)) [Example 21b, (+)-2-[2-(2-methyl-2,3-dihydroindol-1-yl)-2-oxoethyl]-6-morpholin(D8)-4-yl-3H-pyrimidin-4-one] | 27 nM |
| O=C(Cc1nc(N2CCOCC2)cc(=O)[nH]1)N1c2ccccc2CC1c1ccccc1 (single isomer, unassigned; (+)) [Example 24d, (+)-6-(morpholin-4-yl)-2-{2-oxo-2-[2-phenyl-2,3-dihydro-1H-indol-1-yl]ethyl}pyrimidin-4(3H)-one] | 205 nM |
| CC1Cc2c(Br)cccc2N1C(=O)Cc1nc(N2CCOCC2)cc(=O)[nH]1 (single isomer, unassigned; (+)) [Example 25c, (+)-2-{2-[4-bromo-2-methyl-2,3-dihydro-1H-indol-1-yl]-2-oxoethyl}-6-(morpholin-4-yl)pyrimidin-4(3H)-one] | 39 nM |
| O=C(Cc1nc(N2CCOC(CO)C2)cc(=O)[nH]1)N1CCc2c(Cl)cccc21 (single isomer, unassigned; (+)) [Example 26b, (+)-2-[2-(4-Chloro-2,3-dihydroindol-1-yl)-2-oxoethyl]-6-(2-hydroxymethylmorpholin-4-yl)-3H-pyrimidin-4-one] | 240 nM |
| CC1Cc2c(F)cccc2N1C(=O)Cc1nc(N2CCOCC2)cc(=O)[nH]1 (single isomer, unassigned; (+)) [Example 28c, (+)-2-{2-[4-fluoro-2-methyl-2,3-dihydro-1H-indol-1-yl]-2-oxoethyl}-6-(morpholin-4-yl)pyrimidin-4(3H)-one] | 98 nM |
| CC1Cc2c(OC(F)F)cccc2N1C(=O)Cc1nc(N2CCOCC2)cc(=O)[nH]1 (single isomer, unassigned; (+)) [Example 29d, (+)-2-{2-[4-(difluoromethoxy)-2-methyl-2,3-dihydro-1H-indol-1-yl]-2-oxoethyl}-6-(morpholin-4-yl)pyrimidin-4(3H)-one] | 33 nM |
| CC1Cc2c(F)cccc2N1C(=O)Cc1nc(N2CCOCC2)cc(=O)n1C (single isomer, unassigned; (+)) [Example 30c, (+)-2-{2-[4-fluoro-2-methyl-2,3-dihydro-1H-indol-1-yl]-2-oxoethyl}-3-methyl-6-(morpholin-4-yl)pyrimidin-4(3H)-one] | 73 nM |
| CC1Cc2c(Br)cccc2N1C(=O)Cc1nc(N2CCOCC2)cc(=O)n1C (single isomer, unassigned; (+)) [Example 31c, (+)-2-{2-[4-bromo-2-methyl-2,3-dihydro-1H-indol-1-yl]-2-oxoethyl}-3-methyl-6-(morpholin-4-yl)pyrimidin-4(3H)-one] | 36 nM |

Same assay, conditions: PC3 cells, 1 to 2 h incubation, P-AKT-S473, absolute IC50, mean of two independent experiments; listed as 27

| SMILES | IC50 |
| --- | --- |
| O=C(Cc1nc(N2CCOCC2)cc(=O)[nH]1)N1c2ccccc2CC1c1ccc(F)cc1 (single isomer, unassigned; (+)) [Example 27d, (+)-2-{2-[2-(4-fluorophenyl)-2,3-dihydro-1H-indol-1-yl]-2-oxoethyl}-6-(morpholin-4-yl)pyrimidin-4(3H)-one] | 435 nM |
